The target of experiment [1] is Cav3.3 (Homo sapiens, UniProt Q9P0X4). In words: whole-cell patch clamp, transiently transfected tsA-201 cells, % inhibition at […]. Type of experiment: cell-based. Particulars: tsA201, read-out: % inhibition at 10 μM. A general note: Patch clamp records ionic current or voltage across a cell membrane.
Experiment [2] concerns the target Cav3.1 (Homo sapiens, UniProt O43497). Described as above. Conditions: tsA201, read-out: % inhibition at 10 μM. Type of experiment: cell-based.

Cav3.3, sequence (Q9P0X4 whole entry): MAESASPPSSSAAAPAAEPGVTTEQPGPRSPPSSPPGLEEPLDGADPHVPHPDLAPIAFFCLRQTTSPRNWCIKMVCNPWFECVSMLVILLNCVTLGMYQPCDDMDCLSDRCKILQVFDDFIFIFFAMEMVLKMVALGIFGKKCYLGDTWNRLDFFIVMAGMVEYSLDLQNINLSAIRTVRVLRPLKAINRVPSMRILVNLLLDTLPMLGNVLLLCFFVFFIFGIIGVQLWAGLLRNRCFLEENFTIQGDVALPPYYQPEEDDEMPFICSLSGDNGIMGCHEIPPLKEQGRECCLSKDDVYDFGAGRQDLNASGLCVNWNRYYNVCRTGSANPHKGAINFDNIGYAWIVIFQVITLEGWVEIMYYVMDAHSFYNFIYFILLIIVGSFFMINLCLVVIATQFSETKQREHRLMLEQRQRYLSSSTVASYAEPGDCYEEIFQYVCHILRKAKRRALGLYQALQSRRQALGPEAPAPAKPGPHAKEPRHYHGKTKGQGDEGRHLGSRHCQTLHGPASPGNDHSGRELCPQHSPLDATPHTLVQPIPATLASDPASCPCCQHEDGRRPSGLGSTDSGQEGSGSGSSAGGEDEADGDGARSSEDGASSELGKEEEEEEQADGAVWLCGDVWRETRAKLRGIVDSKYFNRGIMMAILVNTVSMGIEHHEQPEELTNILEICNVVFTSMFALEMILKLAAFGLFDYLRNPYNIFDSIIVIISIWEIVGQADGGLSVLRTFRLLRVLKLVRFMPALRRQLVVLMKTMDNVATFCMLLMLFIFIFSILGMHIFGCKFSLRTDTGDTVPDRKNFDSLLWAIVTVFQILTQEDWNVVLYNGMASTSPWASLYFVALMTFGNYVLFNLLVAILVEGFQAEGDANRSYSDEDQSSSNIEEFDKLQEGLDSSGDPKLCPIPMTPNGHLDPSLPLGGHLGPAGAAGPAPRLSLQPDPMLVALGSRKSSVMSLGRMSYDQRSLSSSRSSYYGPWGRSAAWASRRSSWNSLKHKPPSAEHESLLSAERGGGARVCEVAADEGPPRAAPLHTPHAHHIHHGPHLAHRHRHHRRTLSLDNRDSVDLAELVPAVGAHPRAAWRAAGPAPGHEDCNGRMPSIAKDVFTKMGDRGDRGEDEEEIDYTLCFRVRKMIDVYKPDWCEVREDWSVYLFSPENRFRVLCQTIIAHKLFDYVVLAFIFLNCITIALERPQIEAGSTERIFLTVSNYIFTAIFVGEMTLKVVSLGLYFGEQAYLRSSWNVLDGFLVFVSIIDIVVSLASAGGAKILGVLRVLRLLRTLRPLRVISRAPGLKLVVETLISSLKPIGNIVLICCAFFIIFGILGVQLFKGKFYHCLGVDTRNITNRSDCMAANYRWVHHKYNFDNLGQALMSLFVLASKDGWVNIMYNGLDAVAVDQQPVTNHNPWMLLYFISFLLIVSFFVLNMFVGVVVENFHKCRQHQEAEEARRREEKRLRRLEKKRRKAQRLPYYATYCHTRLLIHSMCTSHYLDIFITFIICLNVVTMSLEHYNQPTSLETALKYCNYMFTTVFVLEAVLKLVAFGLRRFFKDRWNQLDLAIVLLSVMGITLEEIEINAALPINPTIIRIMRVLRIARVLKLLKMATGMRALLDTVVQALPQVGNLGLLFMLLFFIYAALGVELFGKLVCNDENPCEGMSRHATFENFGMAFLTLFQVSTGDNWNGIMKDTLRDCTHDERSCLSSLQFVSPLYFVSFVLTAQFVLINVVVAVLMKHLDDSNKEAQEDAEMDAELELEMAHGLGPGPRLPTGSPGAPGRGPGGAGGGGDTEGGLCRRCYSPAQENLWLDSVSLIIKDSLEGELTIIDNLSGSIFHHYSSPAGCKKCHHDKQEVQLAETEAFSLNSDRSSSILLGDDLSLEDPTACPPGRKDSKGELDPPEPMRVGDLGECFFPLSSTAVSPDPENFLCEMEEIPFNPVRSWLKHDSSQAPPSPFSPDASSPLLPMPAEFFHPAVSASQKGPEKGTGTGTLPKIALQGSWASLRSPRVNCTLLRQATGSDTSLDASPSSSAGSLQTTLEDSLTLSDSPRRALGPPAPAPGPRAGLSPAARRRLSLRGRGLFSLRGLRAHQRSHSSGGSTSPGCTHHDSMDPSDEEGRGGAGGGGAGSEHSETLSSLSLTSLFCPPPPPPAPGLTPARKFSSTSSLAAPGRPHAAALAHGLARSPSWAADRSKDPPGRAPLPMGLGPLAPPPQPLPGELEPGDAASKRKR
Cav3.1, sequence (O43497 whole entry): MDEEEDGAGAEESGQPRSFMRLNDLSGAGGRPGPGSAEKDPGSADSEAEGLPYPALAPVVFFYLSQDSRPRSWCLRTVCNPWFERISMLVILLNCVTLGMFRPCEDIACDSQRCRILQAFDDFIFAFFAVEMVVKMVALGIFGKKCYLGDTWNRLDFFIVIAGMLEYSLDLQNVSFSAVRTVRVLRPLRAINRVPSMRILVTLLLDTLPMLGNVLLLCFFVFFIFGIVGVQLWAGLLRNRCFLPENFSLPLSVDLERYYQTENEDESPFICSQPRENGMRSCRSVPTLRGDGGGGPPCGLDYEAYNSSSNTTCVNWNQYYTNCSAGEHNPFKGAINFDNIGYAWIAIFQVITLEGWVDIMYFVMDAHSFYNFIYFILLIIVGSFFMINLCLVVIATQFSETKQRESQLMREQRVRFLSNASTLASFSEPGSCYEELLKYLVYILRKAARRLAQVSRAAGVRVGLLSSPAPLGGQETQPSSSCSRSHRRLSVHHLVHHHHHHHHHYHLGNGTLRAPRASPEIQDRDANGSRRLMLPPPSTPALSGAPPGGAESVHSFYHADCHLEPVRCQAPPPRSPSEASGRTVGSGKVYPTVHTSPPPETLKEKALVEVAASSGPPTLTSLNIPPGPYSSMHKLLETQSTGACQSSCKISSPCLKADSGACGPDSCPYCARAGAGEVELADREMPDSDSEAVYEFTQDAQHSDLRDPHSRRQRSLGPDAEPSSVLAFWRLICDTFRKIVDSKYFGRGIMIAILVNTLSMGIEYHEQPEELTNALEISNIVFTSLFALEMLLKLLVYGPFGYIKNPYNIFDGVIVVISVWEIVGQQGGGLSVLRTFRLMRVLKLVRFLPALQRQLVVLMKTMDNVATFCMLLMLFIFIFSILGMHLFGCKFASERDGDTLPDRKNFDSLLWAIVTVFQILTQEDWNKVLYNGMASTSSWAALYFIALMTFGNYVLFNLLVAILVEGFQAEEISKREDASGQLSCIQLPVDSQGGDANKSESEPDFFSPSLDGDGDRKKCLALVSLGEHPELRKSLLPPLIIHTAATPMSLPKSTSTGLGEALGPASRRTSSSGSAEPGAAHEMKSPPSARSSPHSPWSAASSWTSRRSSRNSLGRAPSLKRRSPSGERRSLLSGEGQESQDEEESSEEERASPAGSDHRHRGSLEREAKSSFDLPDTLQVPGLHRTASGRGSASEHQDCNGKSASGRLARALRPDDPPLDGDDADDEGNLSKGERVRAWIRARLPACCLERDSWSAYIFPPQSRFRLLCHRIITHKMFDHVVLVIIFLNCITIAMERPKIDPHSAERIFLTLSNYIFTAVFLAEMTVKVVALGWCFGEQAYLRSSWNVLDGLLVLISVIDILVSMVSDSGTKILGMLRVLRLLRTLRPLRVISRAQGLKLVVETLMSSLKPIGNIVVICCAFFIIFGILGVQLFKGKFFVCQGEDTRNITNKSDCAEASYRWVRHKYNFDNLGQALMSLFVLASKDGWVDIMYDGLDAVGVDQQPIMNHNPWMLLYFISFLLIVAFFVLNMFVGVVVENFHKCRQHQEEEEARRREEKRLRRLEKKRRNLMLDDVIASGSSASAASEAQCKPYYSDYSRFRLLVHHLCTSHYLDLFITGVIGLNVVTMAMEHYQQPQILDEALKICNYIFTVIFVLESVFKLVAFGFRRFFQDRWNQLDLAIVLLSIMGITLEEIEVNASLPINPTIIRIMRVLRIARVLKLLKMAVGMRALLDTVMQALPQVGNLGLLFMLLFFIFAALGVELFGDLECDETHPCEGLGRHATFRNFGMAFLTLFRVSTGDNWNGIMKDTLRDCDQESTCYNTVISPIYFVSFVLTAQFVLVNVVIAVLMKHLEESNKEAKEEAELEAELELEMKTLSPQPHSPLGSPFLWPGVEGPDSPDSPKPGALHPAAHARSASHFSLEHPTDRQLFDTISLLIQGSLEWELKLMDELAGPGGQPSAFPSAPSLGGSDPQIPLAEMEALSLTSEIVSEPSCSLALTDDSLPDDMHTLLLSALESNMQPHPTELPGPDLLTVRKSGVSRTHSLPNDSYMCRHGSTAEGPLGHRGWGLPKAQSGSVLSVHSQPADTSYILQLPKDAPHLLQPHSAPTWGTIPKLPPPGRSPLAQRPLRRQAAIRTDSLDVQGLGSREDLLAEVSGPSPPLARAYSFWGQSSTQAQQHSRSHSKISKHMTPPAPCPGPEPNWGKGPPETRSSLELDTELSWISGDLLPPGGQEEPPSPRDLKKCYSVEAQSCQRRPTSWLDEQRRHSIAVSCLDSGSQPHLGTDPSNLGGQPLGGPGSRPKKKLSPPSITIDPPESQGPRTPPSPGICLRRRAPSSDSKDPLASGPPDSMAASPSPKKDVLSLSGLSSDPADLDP

A word on the inhibition: it is how much of the control response was suppressed. Turning to `COc1ccccc1-c1no[n+]([O-])c1CN1CCN(C(c2ccc(F)cc2)c2ccc(F)cc2)CC1` [10e, 3-((4-(bis(4-fluorophenyl)methyl)piperazin-1-yl)methyl)-4-(2-methoxyphenyl)-1,2,5-oxadiazole 2-oxide], the inhibition at 10 µM in experiment [1] is 88.4 ± 4.08%; in experiment [2], 93.3 ± 2.78%.

The values above are taken from publication PMC4956396 (Molecular Pain, 2016).
